Tests used:
Assay in all cases: relative viability (nuclei count vs DMSO), 5 days (fraction); higher = more cells survive
[1] = test system: 201T
In short: (§1)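 Lung cancer cell lines were pin-tool dosed in 1536-well plates on the day after seeding, with either a lone drug or a fixed anchor-drug dose plus five library-drug doses (not always all listed) in √10 steps. Nuclei were counted on 4× images after 5 days. Relative viability is the ratio of treated-well to vehicle-well nuclei counts, with each value a median of duplicate plates.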

[2] = test system: A-427
In short: as §1

[3] = test system: BEN
In short: as §1

[4] = test system: COR-L23
In short: as §1

[5] = test system: EKVX
In short: as §1

[6] = test system: EMC-BAC-2
In short: as §1

[7] = test system: EPLC-272H
In short: as §1

[8] = test system: HCC-44
In short: as §1

[9] = test system: HCC-827
In short: as §1

[10] = test system: LCLC-103H
In short: as §1

[11] = test system: LK-2
In short: as §1

[12] = test system: LXF-289
In short: as §1

[13] = test system: NCI-H1650
In short: as §1

[14] = test system: NCI-H1651
In short: as §1

[15] = test system: NCI-H1793
In short: as §1

[16] = test system: NCI-H1915
In short: as §1

[17] = test system: NCI-H2087
In short: as §1

[18] = test system: NCI-H2126
In short: as §1

[19] = test system: NCI-H2347
In short: as §1

[20] = test system: NCI-H358
In short: as §1

[21] = test system: NCI-H460
In short: as §1

[22] = test system: NCI-H596
In short: as §1

[23] = test system: SW 1573
In short: as §1

**Q.** How did the relative viability ([1]; first compound 0.08 µM) turn out when `Cc1cnc(-c2cnc(NCCNc3ccc(C#N)cn3)nc2-c2ccc(Cl)cc2Cl)[nH]1` + CCNC(=O)c1noc(-c2cc(C(C)C)c(O)cc2O)c1-c1ccc(CN2CCOCC2)cc1 [Luminespib] (partner 0.01 µM) was run?
**A.** 1.11

**Q.** What about the relative viability ([1]; first compound 0.8 µM) of the same compound?
**A.** 1.06

**Q.** And the relative viability ([1]; first compound 2.53 µM)?
**A.** 1.01

**Q.** And the relative viability ([2]; first compound 0.08 µM)?
**A.** 0.954

**Q.** And the relative viability ([2]; first compound 0.253 µM)?
**A.** 0.828

**Q.** And the relative viability ([2]; first compound 0.8 µM)?
**A.** 0.814

**Q.** And the relative viability ([2]; first compound 2.53 µM)?
**A.** 0.916

**Q.** And the relative viability ([3]; first compound 0.08 µM)?
**A.** 0.338

**Q.** What about the relative viability ([3]; first compound 0.253 µM) of the same compound?
**A.** 0.612

**Q.** What about the relative viability ([3]; first compound 0.8 µM) of the same compound?
**A.** 0.702

**Q.** And the relative viability ([3]; first compound 2.53 µM)?
**A.** 0.501

**Q.** What about the relative viability ([4]; first compound 0.08 µM) of the same compound?
**A.** 0.784

**Q.** What about the relative viability ([4]; first compound 0.253 µM) of the same compound?
**A.** 0.578

**Q.** And the relative viability ([4]; first compound 0.8 µM)?
**A.** 0.659

**Q.** And the relative viability ([4]; first compound 2.53 µM)?
**A.** 0.621

**Q.** And the relative viability ([5]; first compound 0.08 µM)?
**A.** 0.85

**Q.** What about the relative viability ([5]; first compound 0.253 µM) of the same compound?
**A.** 0.824

**Q.** What about the relative viability ([5]; first compound 0.8 µM) of the same compound?
**A.** 0.911

**Q.** What about the relative viability ([5]; first compound 2.53 µM) of the same compound?
**A.** 0.88

**Q.** What about the relative viability ([6]; first compound 0.08 µM) of the same compound?
**A.** 1.25

**Q.** And the relative viability ([6]; first compound 0.253 µM)?
**A.** 1.05

**Q.** And the relative viability ([6]; first compound 0.8 µM)?
**A.** 1.23

**Q.** And the relative viability ([6]; first compound 2.53 µM)?
**A.** 1.09

**Q.** What about the relative viability ([7]; first compound 0.08 µM) of the same compound?
**A.** 0.308

**Q.** And the relative viability ([7]; first compound 0.253 µM)?
**A.** 0.313

**Q.** What about the relative viability ([7]; first compound 0.8 µM) of the same compound?
**A.** 0.209

**Q.** What about the relative viability ([7]; first compound 2.53 µM) of the same compound?
**A.** 0.192

**Q.** And the relative viability ([8]; first compound 0.08 µM)?
**A.** 1.21

**Q.** What about the relative viability ([8]; first compound 0.253 µM) of the same compound?
**A.** 0.968

**Q.** And the relative viability ([8]; first compound 0.8 µM)?
**A.** 1.14

**Q.** And the relative viability ([8]; first compound 2.53 µM)?
**A.** 1.24

**Q.** And the relative viability ([9]; first compound 0.08 µM)?
**A.** 0.719

**Q.** And the relative viability ([9]; first compound 0.8 µM)?
**A.** 0.752

**Q.** What about the relative viability ([9]; first compound 2.53 µM) of the same compound?
**A.** 0.564

**Q.** And the relative viability ([10]; first compound 0.08 µM)?
**A.** 1.08

**Q.** What about the relative viability ([10]; first compound 0.253 µM) of the same compound?
**A.** 0.865

**Q.** And the relative viability ([10]; first compound 0.8 µM)?
**A.** 0.933

**Q.** What about the relative viability ([10]; first compound 2.53 µM) of the same compound?
**A.** 0.826

**Q.** And the relative viability ([11]; first compound 0.08 µM)?
**A.** 0.197

**Q.** What about the relative viability ([11]; first compound 0.253 µM) of the same compound?
**A.** 0.227

**Q.** And the relative viability ([11]; first compound 0.8 µM)?
**A.** 0.239

**Q.** What about the relative viability ([11]; first compound 2.53 µM) of the same compound?
**A.** 0.205

**Q.** And the relative viability ([12]; first compound 0.08 µM)?
**A.** 0.695

**Q.** What about the relative viability ([12]; first compound 0.253 µM) of the same compound?
**A.** 0.605

**Q.** What about the relative viability ([12]; first compound 0.8 µM) of the same compound?
**A.** 0.726

**Q.** And the relative viability ([12]; first compound 2.53 µM)?
**A.** 0.665

**Q.** And the relative viability ([13]; first compound 0.08 µM)?
**A.** 0.195

**Q.** And the relative viability ([13]; first compound 0.253 µM)?
**A.** 0.207

**Q.** What about the relative viability ([13]; first compound 0.8 µM) of the same compound?
**A.** 0.164

**Q.** What about the relative viability ([13]; first compound 2.53 µM) of the same compound?
**A.** 0.193

**Q.** And the relative viability ([14]; first compound 0.08 µM)?
**A.** 1.03

**Q.** What about the relative viability ([14]; first compound 0.253 µM) of the same compound?
**A.** 0.864

**Q.** And the relative viability ([14]; first compound 0.8 µM)?
**A.** 0.762

**Q.** What about the relative viability ([14]; first compound 2.53 µM) of the same compound?
**A.** 0.883

**Q.** What about the relative viability ([15]; first compound 0.08 µM) of the same compound?
**A.** 0.18

**Q.** And the relative viability ([15]; first compound 0.253 µM)?
**A.** 0.173

**Q.** And the relative viability ([15]; first compound 0.8 µM)?
**A.** 0.147

**Q.** And the relative viability ([15]; first compound 2.53 µM)?
**A.** 0.201

**Q.** And the relative viability ([16]; first compound 0.08 µM)?
**A.** 0.808

**Q.** What about the relative viability ([16]; first compound 0.253 µM) of the same compound?
**A.** 0.587

**Q.** And the relative viability ([16]; first compound 0.8 µM)?
**A.** 0.753

**Q.** What about the relative viability ([16]; first compound 2.53 µM) of the same compound?
**A.** 0.779

**Q.** And the relative viability ([17]; first compound 0.08 µM)?
**A.** 0.128

**Q.** And the relative viability ([17]; first compound 0.253 µM)?
**A.** 0.128

**Q.** What about the relative viability ([17]; first compound 0.8 µM) of the same compound?
**A.** 0.208

**Q.** What about the relative viability ([17]; first compound 2.53 µM) of the same compound?
**A.** 0.175

**Q.** And the relative viability ([18]; first compound 0.08 µM)?
**A.** 1.11

**Q.** What about the relative viability ([18]; first compound 0.253 µM) of the same compound?
**A.** 0.861

**Q.** What about the relative viability ([18]; first compound 0.8 µM) of the same compound?
**A.** 0.966

**Q.** What about the relative viability ([18]; first compound 2.53 µM) of the same compound?
**A.** 0.903

**Q.** What about the relative viability ([19]; first compound 0.08 µM) of the same compound?
**A.** 0.267

**Q.** And the relative viability ([19]; first compound 0.253 µM)?
**A.** 0.266

**Q.** And the relative viability ([19]; first compound 0.8 µM)?
**A.** 0.346

**Q.** And the relative viability ([19]; first compound 2.53 µM)?
**A.** 0.518

**Q.** What about the relative viability ([20]; first compound 0.08 µM) of the same compound?
**A.** 0.24

**Q.** What about the relative viability ([20]; first compound 0.253 µM) of the same compound?
**A.** 0.317

**Q.** And the relative viability ([20]; first compound 0.8 µM)?
**A.** 0.283

**Q.** And the relative viability ([20]; first compound 2.53 µM)?
**A.** 0.0322

**Q.** What about the relative viability ([21]; first compound 0.08 µM) of the same compound?
**A.** 0.0473

**Q.** What about the relative viability ([21]; first compound 0.253 µM) of the same compound?
**A.** 0.0403

**Q.** And the relative viability ([21]; first compound 0.8 µM)?
**A.** 0.0345

**Q.** What about the relative viability ([21]; first compound 2.53 µM) of the same compound?
**A.** 0.0279

**Q.** And the relative viability ([22]; first compound 0.08 µM)?
**A.** 1.06

**Q.** What about the relative viability ([22]; first compound 0.253 µM) of the same compound?
**A.** 1.03

**Q.** What about the relative viability ([22]; first compound 0.8 µM) of the same compound?
**A.** 1.05

**Q.** What about the relative viability ([22]; first compound 2.53 µM) of the same compound?
**A.** 1.24

**Q.** And the relative viability ([23]; first compound 0.08 µM)?
**A.** 0.162

**Q.** And the relative viability ([23]; first compound 0.253 µM)?
**A.** 0.277

**Q.** And the relative viability ([23]; first compound 0.8 µM)?
**A.** 0.344

**Q.** And the relative viability ([23]; first compound 2.53 µM)?
**A.** 0.234

From the supplement of paper PMC10307832
